Test results reported in publication PMC6249039 (Journal of medicinal chemistry, 2018).

Biological target: influenza PA endonuclease (PAN) (Influenza A virus, UniProt C3W5S0, DEL52-63/E64G)
Format: biochemical, influenza A (A/California/04/2009) H1N1

Cc1cc(=O)c(O)c(C(=O)O)o1 [Compound 1, 3-Hydroxy-6-methyl-4-oxo-4H-pyran-2-carboxylic acid]
Change in activity with presence or absence of excess metal ions: no change

Cc1cc(=O)c(O)c(C(=O)O)[nH]1 [Compound 17, 3-Hydroxy-6-methyl-4-oxo-1,4-dihydropyridine-2-carboxylic acid]
Change in activity with presence or absence of excess metal ions: no change
